How the values were obtained:
Assay type in all cases: in vivo
[1] = tested on: wheat (Triticum aestivum); assay: Test A1 preemergence, wheat
How it was run: (§1)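 Pre: seeds in loam/sand blend, directed soil spray. Post: potted plants, same soil, 2–10 cm, 1–2 leaf stage. Chemicals in non-phytotoxic solvent + surfactant for both.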

[2] = tested on: barnyardgrass (Echinochloa crus-galli); assay: Test B1 flooded paddy test, barnyardgrass; conditions: 250 g ai/ha, Flood, applied to paddy water, 2-leaf stage, visually evaluated after 10 to 14 days
Description: A dash (-) response means no test result.

[3] = tested on: blackgrass (Alopecurus myosuroides); assay: Test A1 preemergence, blackgrass
How it was run: as §1

[4] = 31 g ai/ha, 0 to 100 scale (0 no effect, 100 complete control)
[5] = 125 g ai/ha, 0 to 100 scale, 0 no effect, 100 complete control
[6] = 500 g ai/ha, 0 to 100 scale (0 no effect, 100 complete control)

SMILES | Plant response rating, Wheat [1, 4] | Plant response rating, Wheat [1, 5] | Plant response rating, Barnyardgrass (0 to 100 scale, 0 is no effect, 100 is complete control) [2] | Plant response rating, Blackgrass [3, 4] | Plant response rating, Blackgrass [3, 5] | Plant response rating, Wheat [1, 6] | Plant response rating, Blackgrass [3, 6] | Plant response rating, Wheat ([1]; 125 g ai/ha, 0 to 100 scale (0 no effect, 100 complete control))
CCOC(=O)N(c1cc(C(=O)N2C[C@@H](C)O[C@H](C)C2)c(C)c(C)c1C)S(=O)(=O)C(F)(F)F (relative stereo) [Compound 374] | 0 | 30 | 40 | 0 | 0 |  |  | 
Cc1ccc(C2=NOC3CCCC23)cc1NS(=O)(=O)C(F)(F)F (centres unmarked) [Compound 377] | 0 | 20 | 0 |  |  |  |  | 
CCc1cc(C)c(N(COC(=O)C(C)(C)C)S(=O)(=O)C(F)(F)F)cc1C1=NOC2CCCC12 (centres unmarked) [Compound 378] | 10 | 20 | 95 |  |  |  |  | 
Cc1c(NS(=O)(=O)C(F)(F)F)cc(C2=NOC3(CCCC3)C2)c(C)c1C [Compound 380] | 30 | 90 | 98 |  |  |  |  | 
Cc1cc(C)c(C2=NOC(C(C)C)C2)cc1NS(=O)(=O)C(F)(F)F (centres unmarked) [Compound 381] | 40 | 90 | 70 |  |  |  |  | 
Cc1c(C2=NOC3(CCCC3)C2)cc(N(COC(=O)C(C)(C)C)S(=O)(=O)C(F)(F)F)c(C)c1C [Compound 382] | 20 | 20 | 90 |  |  |  |  | 
Cc1cc(Cl)c(NS(=O)(=O)C(F)(F)F)cc1N1CCC2(CCCCC2)C1=O [Compound 393] | 40 | 60 | 0 | 70 | 90 |  |  | 
Cc1cc(C)c(N(COC(=O)C(C)(C)C)S(=O)(=O)C(F)(F)F)cc1N1CCC2(CCC(F)(F)CC2)C1=O [Compound 397] |  | 20 | 90 |  | 40 | 100 | 90 | 
COC1CCC2(CC1)CCN(c1cc(NS(=O)(=O)C(F)(F)F)c(C)cc1C)C2=O (centres unmarked) [Compound 398] | 20 | 90 | 85 | 60 | 90 |  |  | 
Cc1cc(C)c(N(S(=O)(=O)C(F)(F)F)S(=O)(=O)C(F)(F)F)cc1N1CCC2(CCC(C(F)(F)F)CC2)C1=O (centres unmarked) [Compound 399] | 0 | 20 | 0 | 20 | 60 |  |  | 
Cc1cc(C)c(N2CCC3(CCC(C(F)(F)F)CC3)C2=O)cc1NS(=O)(=O)C(F)(F)F (centres unmarked) [Compound 400] | 10 | 80 | 20 | 20 | 80 |  |  | 
Cc1cc(C)c(N(COC(=O)C(C)(C)C)S(=O)(=O)C(F)(F)F)cc1N1CCC2(CCC(C)CC2)C1=O (centres unmarked) [Compound 401] | 0 | 0 | 98 | 0 | 0 |  |  | 
Cc1cc(C)c(N2CCC3(CCC(C)CC3)C2=O)cc1NS(=O)(=O)C(F)(F)F (centres unmarked) [Compound 402] | 30 | 50 | 0 | 70 | 80 |  |  | 
Cc1cc(C)c(N(COC(=O)C(C)(C)C)S(=O)(=O)C(F)(F)F)cc1N1CCC2(CCC(C(F)(F)F)CC2)C1=O (centres unmarked) [Compound 403] | 0 | 0 | 0 | 0 | 0 |  |  | 
CCOc1cccc2c1C(=O)N(c1cc(N(COC(=O)C(C)(C)C)S(=O)(=O)Cl)c(C)cc1C)C2 [Compound 414] |  |  | 0 |  |  |  |  | 0

— US20230278972A1, “SUBSTITUTED HALOALKYL SULFONANILIDE HERBICIDES” (FMC Corporation, priority 2020, published 2023)
